We go through 13 compounds from patent publication US8785424B2, “ngCycloartanone derivatives with anticancer activity” (Pierre Fabre Medicament, priority 2009, dated 2014).

This test relates to proteasome. In words: Cellular proteasome inhibition test: accumulation of 4Ub-Luc reporter (luciferase activity) in DLD-1 4Ub-Luc cell line. The test is classed as cell-based, human. Conditions: DLD-1 4Ub-Luc cells, 8 hours, epoxomicin = 100%. Here is the method:
Biological tests were carried out according to protocols described in the following articles: Ausseil F. et al. J. Biomol Screen. 2007, 12, 106-116 and Vandenberghe I. et al. Biochemical Pharmacology 2008, 76, 453-462.
In order to select novel proteasome inhibitor compounds, it is necessary to indirectly measure the activity of this proteasome within cells. To this end, we constructed a stable cell line, DLD-1 4Ub-Luc, arising from a human colon cancer cell line, which produces a chimeric reporter protein called 4Ub-Luc. This protein is a fusion between a 4-ubiquitin (4Ub) label and luciferase (Luc). This label is capable to direct every proteins that carry it toward the proteasome. The 4Ub-Luc protein is thus efficiently degraded by the proteasome, in contrast to the “wild” non-fused Luc protein. When the DLD-1 4Ub-Luc cell line is treated with a proteasome inhibitor, the fusion protein is much less efficiently degraded and accumulates in the cell. This accumulation is detected by an increase in luciferase activity in the treated extract compared to the extract from untreated cells. The control consists of verifying that the inhibitor has no effect on accumulation of the wild Luc protein produced by the stable DLD-1 RF cell line. For both cell lines and for each product an induction factor is determined for the product tested (or the reference) corresponding to the ratio between the luciferase activities measured in cells treated with this product (or the reference) and cells treated with solvent alone.
The product's activity is then defined by its relative induction factor, i.e., the ratio of its induction factor (IF % luminescence) to that of the reference molecule epoxomicin (IF=100%; see data presented in the table below).
Thus, the test established by Pierre-Fabre is a cellular test that has the advantage, compared to a purely enzymatic test, of detecting only products capable of penetrating the cell.
Two cell lines are used for this test: DLD-1 RF and DLD-1 4Ub-Luc. The culture medium used is as follows: • MEM • 5% fetal calf serum • 5 ml of penicillin-streptomycin • 2.5 ml of FUNGIZONE® (Amphotericin B) • 10 ml of […]
Day 1: Inoculate white 96-well culture-treated plates (PerkinElmer White ViewPlate, product no. 6005181) with 100 μl of 1·10^5 c/ml cell suspension per well. Incubate for 24 hours so that the cells adhere. On each plate five columns will be inoculated with DLD-1 4Ub-Luc and five others with DLD-1 RF according to diagram 1 below.
Day 2: Remove the medium by turning the plates upside down on cotton, and then carry out the treatment with the compounds of the invention, with solvent alone or with a reference compound such as epoxomicin. […]
The columns are paired (examples 2 and 8, 3 and 9, 4 and 10 and 5 and 11) and treated with the same compound. Columns 6 and 7 receive the experimental control, namely 0.1% DMSO in culture medium for wells B, C, D, and E of columns 6 and 7, and the positive control (10^−7 M epoxomicin) in wells F and G.
After incubation, turn the plate upside down on cotton to empty the wells, rinse with 50 μl of PBS to remove any trace of the cytotoxin tested and then add 50 μl of 5× passive lysis buffer (Promega, product no. E1941) diluted to ⅕ in water. Shake energetically using a plate shaker for 5 to 10 minutes at room temperature before freezing at −20° C.
Luciferase activity is measured using a Luciferase Assay System 10-Pack kit (Promega, product no. E1501).
On the day luciferase activity is to be measured, defrost the plates and wait until they have returned to room temperature. The optimal temperature for luciferase activity is 20-25° C.
Reconstitute the firefly luciferase substrate by defrosting the buffer and then adding 10 ml of buffer to the bottle containing the freeze-dried substrate. Wait until the solution is at room temperature before beginning the assay. […]

Setting [1] is: concentration tested 5 · 10^−6 M.
The mark [2] stands for this setting: concentration tested 5 · 10^−7 M.

Counter-ions that a name gives are not always drawn.

For `C=C(C(=O)[C@H](OC(C)=O)[C@@H](C)[C@H]1[C@@H](OC(C)=O)C[C@@]2(C)[C@@H]3CC[C@H]4[C@H](C)C(=O)C=C[C@@]45C[C@@]35CC[C@]12C)[C@@H](C)COC(C)=O` [Compound 18, 26-acetyl-neoboutomellerone], the “relative induction factor (IF % luminescence) versus epoxomicin” value by setting is: under setting [1], 48%; under setting [2], 1%; (concentration tested 10^−6 M) 12%.
Turning to `C=C(C(=O)[C@H](OC(C)=O)[C@@H](C)[C@H]1[C@@H](OC(C)=O)C[C@@]2(C)[C@@H]3CC[C@H]4[C@H](C)C(=O)C=C[C@@]45C[C@@]35CC[C@]12C)[C@@H](C)COC` [Compound 19, 26-methoxy-neoboutomellerone], the “relative induction factor (IF % luminescence) versus epoxomicin” value by setting is: under setting [1], 45%; under setting [2], 1%; (concentration tested 10^−6 M) 40%.
For `C=C(C(=O)[C@H](OC(C)=O)[C@@H](C)[C@H]1[C@@H](OC(C)=O)C[C@@]2(C)[C@@H]3CC[C@H]4[C@H](C)C(=O)C=C[C@@]45C[C@@]35CC[C@]12C)[C@@H](C)COC(=O)Nc1ccccc1` [Compound 20, 26-N-phenylcarbamate-neoboutomellerone] the same measures were 60%, 6% and 42%.
As for `C=C(C(=O)[C@H](OC(C)=O)[C@@H](C)[C@H]1[C@@H](OC(C)=O)C[C@@]2(C)[C@@H]3CC[C@H]4[C@H](C)C(=O)C=C[C@@]45C[C@@]35CC[C@]12C)[C@@H](C)COC(=O)N1CCN(C)CC1` [Compound 22, 26-N—(N-methylpiperazine)carbamate-neoboutomellerone hydrochloride], the “relative induction factor (IF % luminescence) versus epoxomicin” value is, setting by setting: under setting [1], 4%; under setting [2], 8%; (concentration tested 10^−5 M) 1%; (concentration tested 10^−6 M) 68%.
Take `C=C(C(=O)[C@H](O)[C@@H](C)[C@H]1[C@@H](OC(C)=O)C[C@@]2(C)[C@@H]3CC[C@H]4[C@H](C)C(=O)C=C[C@@]45C[C@@]35CC[C@]12C)[C@@H](C)COC(=O)N1CCN(C)CC1` [Compound 23, 26-N—(N-methylpiperazine)carbamate-22-deacetyl-neoboutomellerone]: the “relative induction factor (IF % luminescence) versus epoxomicin” value is recorded as 7% under setting [1], 15% under setting [2], 2% (concentration tested 10^−5 M) and 69% (concentration tested 10^−6 M).
As to `C=C(C(=O)[C@H](O)[C@@H](C)[C@H]1[C@@H](OC(C)=O)C[C@@]2(C)[C@@H]3CC[C@H]4[C@H](C)C(=O)C=C[C@@]45C[C@@]35CC[C@]12C)[C@@H](C)COC(=O)N1CCN(C)CC1` [Compound 24, 26-N—(N-methylpiperazine)carbamate-22-deacetyl-neoboutomellerone hydrochloride], the “relative induction factor (IF % luminescence) versus epoxomicin” value (concentration tested 5 · 10^−6 M, hydrochloride) was determined as 5%; the “relative induction factor (IF % luminescence) versus epoxomicin” value (concentration tested 5 · 10^−7 M, hydrochloride) came to 12%; the “relative induction factor (IF % luminescence) versus epoxomicin” value (concentration tested 10^−5 M, hydrochloride) is on record as 1%; the “relative induction factor (IF % luminescence) versus epoxomicin” value (concentration tested 10^−6 M, hydrochloride) is given as 70%.
For `C=C(C(=O)[C@H](OC(C)=O)[C@@H](C)[C@H]1[C@@H](OC(C)=O)C[C@@]2(C)[C@@H]3CC[C@H]4[C@H](C)C(=O)C=C[C@@]45C[C@@]35CC[C@]12C)[C@@H](C)COC(=O)Nc1ccc(N(C)C)cc1` [Compound 25, 26-N-(4-N,N-dimethylaniline)carbamate-neoboutomellerone], the “relative induction factor (IF % luminescence) versus epoxomicin” value is, setting by setting: under setting [1], 51%; under setting [2], 19%; (concentration tested 10^−5 M) 60%; (concentration tested 10^−6 M) 49%.
Take `C=C(C(=O)[C@H](O)[C@@H](C)[C@H]1[C@@H](OC(C)=O)C[C@@]2(C)[C@@H]3CC[C@H]4[C@H](C)C(=O)C=C[C@@]45C[C@@]35CC[C@]12C)[C@@H](C)COC(=O)Nc1ccc(N(C)C)cc1` [Compound 26, 26-N-(4-N,N-dimethylaniline)carbamate-22-deacetyl-neoboutomellerone]: the “relative induction factor (IF % luminescence) versus epoxomicin” value is 54% under setting [1], 11% under setting [2], 37% (concentration tested 10^−5 M) and 53% (concentration tested 10^−6 M).
`C=C(C(=O)[C@H](OC(C)=O)[C@@H](C)[C@H]1[C@@H](OC(C)=O)C[C@@]2(C)[C@@H]3CC[C@H]4[C@H](C)/C(=N/O)C=C[C@@]45C[C@@]35CC[C@]12C)[C@@H](C)CO` [Compound 27, 3-anti-oxime-neoboutomellerone]: the “relative induction factor (IF % luminescence) versus epoxomicin” value is, setting by setting: under setting [1], 103%; under setting [2], 1%; (concentration tested 10^−6 M) 1%.
`C=C(C(=O)[C@H](OC(C)=O)[C@@H](C)[C@H]1[C@@H](OC(C)=O)C[C@@]2(C)[C@@H]3CC[C@H]4[C@H](C)/C(=N/NC(N)=O)C=C[C@@]45C[C@@]35CC[C@]12C)[C@@H](C)CO` [Compound 35, 3-semicarbazone-neoboutomellerone]: the “relative induction factor (IF % luminescence) versus epoxomicin” value reads like this: under setting [1], 99%; (concentration tested 10^−5 M) 30%; (concentration tested 10^−6 M) 1%.
For `C=C(C(=O)[C@H](OC(C)=O)[C@@H](C)[C@H]1[C@@H](OC(C)=O)C[C@@]2(C)[C@@H]3CC[C@H]4[C@H](C)/C(=N/OCc5ccccc5)C=C[C@@]45C[C@@]35CC[C@]12C)[C@@H](C)CO` [Compound 36, 3-anti-O-benzyloxime-neoboutomellerone] the same measures were 12%, 6% and 1%.
`CC(=O)O[C@H]1C[C@@]2(C)C3CCC4[C@H](C)C(=O)C=C[C@@]45C[C@@]35CC[C@]2(C)[C@H]1[C@H](C)[C@@H](OC(C)=O)C1=C(CN=[N+]=[N-])C(C)CO1` (some centres unmarked) [Compound 47, Azido-methyl-dihydro-furan-neoboutomellerone Derivative]: the “relative induction factor (IF % luminescence) versus epoxomicin” value was 78% under setting [1], 36% (concentration tested 10^−5 M) and 7% (concentration tested 10^−6 M).
For `C=C(C(=O)[C@H](OC(C)=O)[C@@H](C)[C@H]1[C@@H](OC(C)=O)C[C@@]2(C)C3CCC4[C@H](C)C(=O)C=C[C@@]45C[C@@]35CC[C@]12C)[C@@H](C)COC(=O)CCl` (some centres unmarked) [Compound 49, 26-chloro-acetate-neoboutomellerone Derivative] the same measures were 44%, 15% and 19%.
